Source: patent US20260070945A1, “MACROCYCLIC IMMUNOMODULATORS” (Bristol-Myers Squibb Company, priority 2022, published 2026)
Where a SMILES comes first, the peptide text is derived from it. Bridges are numbered along the chain shown (N, C = ends). [ ]: non-standard residue; d: D form. The star is where a group is joined. ξ: configuration not given here. Phe(4-CONH2) = NC(=O)c1ccc(C[C@H](N)C(=O)O)cc1; Phe(4-COOH) = N[C@@H](Cc1ccc(C(=O)O)cc1)C(=O)O; Bip = N[C@@H](Cc1ccc(-c2ccccc2)cc1)C(=O)O; Phe(3-Me) = Cc1cccc(C[C@H](N)C(=O)O)c1; Val(3-OH) = CC(C)(O)[C@H](N)C(=O)O; 4Pal = N[C@@H](Cc1ccncc1)C(=O)O; Cha = N[C@@H](CC1CCCCC1)C(=O)O; Ile(3ξ) = CCC(C)[C@H](N)C(=O)O; Thr(3ξ) = CC(O)[C@H](N)C(=O)O; Carboxymethyl = O=C(O)C*; NMeA = CN[C@@H](C)C(=O)O; Aun = NCCCCCCCCCCC(=O)O; Dab = NCC[C@H](N)C(=O)O; AEEA = NCCOCCOCC(=O)O

target: T1, PD-1/PD-L1 interaction (PE-labeled human PD-L1-Ig binding to Jurkat cell line over-expressing human PD-1) (Homo sapiens, UniProt Q15116); experiment: Jurkat-PD-1 Cell Binding High-Content Screening Assay (CBA); conditions: PE-labeled PD-L1-Ig 20 nM final, Jurkat-hPD-1 cells; read-out: Jurkat HPD1 PDL1 IC50
T1 construct: expressed in transfected cells; host or cells: Jurkat
T1 sequence (Q15116 25-288): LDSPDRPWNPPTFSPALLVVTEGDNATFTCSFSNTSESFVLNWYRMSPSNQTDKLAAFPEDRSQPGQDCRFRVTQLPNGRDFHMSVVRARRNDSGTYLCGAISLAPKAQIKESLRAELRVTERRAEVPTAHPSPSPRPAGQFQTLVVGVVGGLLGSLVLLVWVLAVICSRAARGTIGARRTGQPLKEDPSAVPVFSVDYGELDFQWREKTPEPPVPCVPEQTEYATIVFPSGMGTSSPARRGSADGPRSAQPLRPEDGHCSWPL
How it was run: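 High-content imaging read-out of PE-PD-L1-Ig binding (20 nM final, 1 h) to Jurkat-hPD-1 cells, after 2 h compound exposure at 37 °C in DMEM with 10% FCS. Nuclei counterstained with Hoechst 33342 after paraformaldehyde fixation.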

IC50	SMILES
1.8 nM	Cc1cccc(C[C@@H]2NC(=O)[C@H](CC(=O)O)NC(=O)[C@H](Cc3ccc(C(=O)O)cc3)NC(=O)[C@H](C(C)O)NC(=O)CSC[C@@H](C(=O)N[C@@H](CCN)C(=O)NCCOCCOCC(=O)NCCOCCOCC(=O)NCCCCCCCCCCC(=O)O)NC(=O)[C@H](CO)NC(=O)[C@H](C(C)(C)O)NC(=O)[C@H](CC3CCCCC3)NC(=O)[C@H](CCN)NC(=O)[C@@H](CC(C)C)NC(=O)[C@H](C)N(C)C(=O)[C@H](Cc3ccc(C(=O)O)cc3)NC(=O)[C@H](Cc3ccc(-c4ccccc4)cc3)NC(=O)[C@H](Cc3ccc(C(=O)O)cc3)NC2=O)c1 (stereo partly drawn) [Example 2527] ({CH2CO}-[Thr(3ξ)][Phe(4-COOH)]D[Phe(3-Me)][Phe(4-COOH)][Bip][Phe(4-COOH)][NMeA][dL][Dab][Cha][Val(3-OH)]SC[Dab][AEEA][AEEA][Aun]-OH; thioether N-14)
8.6 nM	Cc1cccc(C[C@@H]2NC(=O)[C@H](CC(=O)O)NC(=O)[C@H](Cc3ccc(C(=O)O)cc3)NC(=O)[C@H](C(C)O)NC(=O)CSC[C@@H](C(=O)N[C@@H](CCN)C(=O)NCCOCCOCC(=O)NCCOCCOCC(=O)NCCCCCCCCCCC(=O)O)NC(=O)[C@H](CCC(=O)O)NC(=O)[C@H](C(C)O)NC(=O)[C@H](CC3CCCCC3)NC(=O)[C@H](CCN)NC(=O)[C@@H](CC(C)C)NC(=O)[C@H](C)N(C)C(=O)[C@H](Cc3ccc(C(=O)O)cc3)NC(=O)[C@H](Cc3ccc(-c4ccccc4)cc3)NC(=O)[C@H](Cc3ccc(C(=O)O)cc3)NC2=O)c1 (stereo partly drawn) [Example 2528] ({CH2CO}-[Thr(3ξ)][Phe(4-COOH)]D[Phe(3-Me)][Phe(4-COOH)][Bip][Phe(4-COOH)][NMeA][dL][Dab][Cha][Thr(3ξ)]EC[Dab][AEEA][AEEA][Aun]-OH; thioether N-14)
435 nM	Cc1cccc(C[C@@H]2NC(=O)[C@H](CC(=O)O)NC(=O)[C@H](Cc3ccc(C(=O)O)cc3)NC(=O)[C@H](Cc3ccncc3)NC(=O)CSC[C@@H](C(=O)N[C@@H](CCN)C(=O)NCCOCCOCC(=O)NCCOCCOCC(=O)NCCCCCCCCCCC(=O)O)NC(=O)[C@H](CCC(=O)O)NC(=O)[C@H](C(C)C)NC(=O)[C@H](CC3CCCCC3)NC(=O)[C@H](CCN)NC(=O)[C@@H](CC(C)C)NC(=O)[C@H](C)N(C)C(=O)[C@H](CCC(=O)O)NC(=O)[C@H](Cc3ccc(-c4ccccc4)cc3)NC(=O)[C@H](Cc3ccc(C(N)=O)cc3)NC2=O)c1 [Example 2536] ({CH2CO}-[4Pal][Phe(4-COOH)]D[Phe(3-Me)][Phe(4-CONH2)][Bip]E[NMeA][dL][Dab][Cha]VEC[Dab][AEEA][AEEA][Aun]-OH; thioether N-14)

The remaining lines, values behind:

SMILES	IC50
CCC(C)[C@@H]1NC(=O)[C@H](Cc2ccc(-c3ccccc3)cc2)NC(=O)[C@H](C(C)C)NC(=O)[C@H](Cc2c[nH]c3ccccc23)NC(=O)[C@H](CC(=O)O)NC(=O)[C@H](Cc2ccc(C(=O)O)cc2)NC(=O)[C@H](Cc2cnc[nH]2)NC(=O)CSC[C@@H](C(=O)N[C@@H](CCN)C(=O)NCCOCCOCC(=O)NCCOCCOCC(=O)NCCCCCCCCCCC(=O)O)NC(=O)[C@H](C(C)O)NC(=O)[C@H](C(C)O)NC(=O)[C@H](CC2CCCCC2)NC(=O)[C@H](CCN)NC(=O)[C@@H](CC(C)C)NC(=O)[C@H](C)N(C)C1=O (stereo partly drawn) [Example 2529] ({CH2CO}-H[Phe(4-COOH)]DWV[Bip][Ile(3ξ)][NMeA][dL][Dab][Cha][Thr(3ξ)][Thr(3ξ)]C[Dab][AEEA][AEEA][Aun]-OH; thioether N-14)	4.4 nM
CCC(C)[C@@H]1NC(=O)[C@H](Cc2ccc(-c3ccccc3)cc2)NC(=O)[C@H](C(C)C)NC(=O)[C@H](Cc2c[nH]c3ccccc23)NC(=O)[C@H](CC(=O)O)NC(=O)[C@H](Cc2ccc(C(=O)O)cc2)NC(=O)[C@H](Cc2cnc[nH]2)NC(=O)CSC[C@@H](C(=O)N[C@@H](CCN)C(=O)NCCOCCOCC(=O)NCCCCCCCCCCC(=O)O)NC(=O)[C@H](C(C)O)NC(=O)[C@H](C(C)(C)O)NC(=O)[C@H](CC2CCCCC2)NC(=O)[C@H](CCN)NC(=O)[C@@H](CC(C)C)NC(=O)[C@H](C)N(C)C1=O (stereo partly drawn) [Example 2530] ({CH2CO}-H[Phe(4-COOH)]DWV[Bip][Ile(3ξ)][NMeA][dL][Dab][Cha][Val(3-OH)][Thr(3ξ)]C[Dab][AEEA][Aun]-OH; thioether N-14)	2.4 nM
CCC(C)[C@@H]1NC(=O)[C@H](Cc2ccc(-c3ccccc3)cc2)NC(=O)[C@H](C(C)C)NC(=O)[C@H](Cc2c[nH]c3ccccc23)NC(=O)[C@H](CC(=O)O)NC(=O)[C@H](Cc2ccc(C(=O)O)cc2)NC(=O)[C@H](Cc2cnc[nH]2)NC(=O)CSC[C@@H](C(=O)N[C@@H](CCN)C(=O)NCCOCCOCC(=O)NCCCCCCCCCCC(=O)O)NC(=O)[C@H](CCC(=O)O)NC(=O)[C@H](C(C)(C)O)NC(=O)[C@H](CC2CCCCC2)NC(=O)[C@H](CCN)NC(=O)[C@@H](CC(C)C)NC(=O)[C@H](C)N(C)C1=O (stereo partly drawn) [Example 2531] ({CH2CO}-H[Phe(4-COOH)]DWV[Bip][Ile(3ξ)][NMeA][dL][Dab][Cha][Val(3-OH)]EC[Dab][AEEA][Aun]-OH; thioether N-14)	1 nM
CC(=O)NCCCC[C@@H]1NC(=O)[C@H](C(C)(C)O)NC(=O)[C@H](CC2CCCCC2)NC(=O)[C@H](CCN)NC(=O)[C@@H](CC(C)C)NC(=O)[C@H](C)N(C)C(=O)[C@H](CCC(=O)O)NC(=O)[C@H](Cc2ccc(-c3ccccc3)cc2)NC(=O)[C@H](Cc2ccc(C(N)=O)cc2)NC(=O)[C@H](Cc2cccc(C)c2)NC(=O)[C@H](CC(=O)O)NC(=O)[C@H](Cc2ccc(OCC(=O)O)cc2)NC(=O)[C@H](Cc2ccc(OCC(=O)O)cc2)NC(=O)CSC[C@@H](C(=O)N[C@@H](CCN)C(=O)NCCOCCOCC(=O)NCCCCCCCCCCC(=O)O)NC1=O [Example 2532] ({CH2CO}-Y(Carboxymethyl)Y(Carboxymethyl)D[Phe(3-Me)][Phe(4-CONH2)][Bip]E[NMeA][dL][Dab][Cha][Val(3-OH)]K(Ac)C[Dab][AEEA][Aun]-OH; thioether N-14)	1.4 nM
CC(=O)NCCCC[C@@H]1NC(=O)[C@H](C(C)(C)O)NC(=O)[C@H](CC2CCCCC2)NC(=O)[C@H](CCN)NC(=O)[C@@H](CC(C)C)NC(=O)[C@H](C)N(C)C(=O)[C@H](CCC(=O)O)NC(=O)[C@H](Cc2ccc(-c3ccccc3)cc2)NC(=O)[C@H](Cc2ccc(C(N)=O)cc2)NC(=O)[C@H](Cc2cccc(C)c2)NC(=O)[C@H](CC(=O)O)NC(=O)[C@H](Cc2ccc(C(=O)O)cc2)NC(=O)[C@H](Cc2ccc(OCC(=O)O)cc2)NC(=O)CSC[C@@H](C(=O)N[C@@H](CCN)C(=O)NCCOCCOCC(=O)NCCOCCOCC(=O)NCCCCCCCCCCC(=O)O)NC1=O [Example 2533] ({CH2CO}-Y(Carboxymethyl)[Phe(4-COOH)]D[Phe(3-Me)][Phe(4-CONH2)][Bip]E[NMeA][dL][Dab][Cha][Val(3-OH)]K(Ac)C[Dab][AEEA][AEEA][Aun]-OH; thioether N-14)	2.3 nM
CC(=O)NCCCC[C@@H]1NC(=O)[C@H](C(C)O)NC(=O)[C@H](CC2CCCCC2)NC(=O)[C@H](CCN)NC(=O)[C@@H](CC(C)C)NC(=O)[C@H](C)N(C)C(=O)[C@H](CCC(=O)O)NC(=O)[C@H](Cc2ccc(-c3ccccc3)cc2)NC(=O)[C@H](Cc2ccc(C(N)=O)cc2)NC(=O)[C@H](Cc2cccc(C)c2)NC(=O)[C@H](CC(=O)O)NC(=O)[C@H](Cc2ccc(C(=O)O)cc2)NC(=O)[C@H](Cc2ccc(OCC(=O)O)cc2)NC(=O)CSC[C@@H](C(=O)N[C@@H](CCN)C(=O)NCCOCCOCC(=O)NCCCCCCCCCCC(=O)O)NC1=O (stereo partly drawn) [Example 2534] ({CH2CO}-Y(Carboxymethyl)[Phe(4-COOH)]D[Phe(3-Me)][Phe(4-CONH2)][Bip]E[NMeA][dL][Dab][Cha][Thr(3ξ)]K(Ac)C[Dab][AEEA][Aun]-OH; thioether N-14)	1.7 nM
